Measurements taken from patent publication US7118895B2, “Process for producing aglycon by using diglycosidase and flavor-improved food containing the aglycon and converting agent to be used in the process” (Amano Enzyme Inc., priority 2000, dated 2006).

Tested on: Crude diglycosidase
Assay: Examination of temperature in the conversion into isoflavone aglycons by diglycosidase using soybean materials
Format: biochemical, Penicillium multicolor IAM7153
Set-up: Decomposition efficiency of glycitin family in roasted soy flour / Decomposition efficiency of daidzin family in roasted soy flour / Decomposition efficiency of genistin family in soymilk / Decomposition efficiency of daidzin family in soymilk / Decomposition efficiency of glycitin family in defatted soybean / Decomposition efficiency of daidzin family in defatted soybean: concentration or dose not given beside the values
Procedure: Into 400 μL of 20 mM acetate buffer of pH 4.0 was suspended 50 mg of each of various soybean materials (roasted soy flour (manufactured by Fuji Shokuryo K.K.), soymilk (manufactured by Gitoh Shokuhin K.K.), defatted soybean (manufactured by Fuji Seiyu K.K.), concentrated soybean protein (manufactured by Fuji Seiyu K.K.)), whereby a substrate solution was prepared. Crude diglycosidase was diluted with 20 mM acetate buffer of pH 4.0 to be the glycosidase activity of 1.88 AU/mL. Fifty μL of the enzyme solution was mixed with the substrate solution and the whole was reacted at 80, 65, 55, 45, 37, or 30° C. at the total volume of 500 μL. To the reaction mixture was added 700 μL of ethanol after 0, 1, 3, and 6 hours of the reaction. After stirring and ultrasonication, the mixture was subjected to centrifugal separation at 15,000 rpm and 4° C. for 10 minutes. The supernatant was filtered through a filter and the existence of isoflavone glycosides and aglycon isoflavones contained in the reaction mixture was detected by HLPC.

[1] = 30 °C, heat treatment of enzyme: no, 0 h
[2] = 30 °C, heat treatment of enzyme: no, 1 h
[3] = 30 °C, heat treatment of enzyme: no, 3 h
[4] = 30 °C, heat treatment of enzyme: no, 6 h
[5] = 30 °C, heat treatment of enzyme: yes, 6 h
[6] = 45 °C, heat treatment of enzyme: no, 0 h
[7] = 45 °C, heat treatment of enzyme: no, 1 h
[8] = 45 °C, heat treatment of enzyme: no, 3 h
[9] = 45 °C, heat treatment of enzyme: no, 6 h
[10] = 45 °C, heat treatment of enzyme: yes, 6 h
[11] = 55 °C, heat treatment of enzyme: no, 0 h
[12] = 55 °C, heat treatment of enzyme: no, 1 h
[13] = 55 °C, heat treatment of enzyme: no, 3 h
[14] = 55 °C, heat treatment of enzyme: no, 6 h
[15] = 55 °C, heat treatment of enzyme: yes, 6 h
[16] = 65 °C, heat treatment of enzyme: no, 0 h
[17] = 65 °C, heat treatment of enzyme: no, 1 h
[18] = 65 °C, heat treatment of enzyme: no, 3 h
[19] = 65 °C, heat treatment of enzyme: no, 6 h
[20] = 65 °C, heat treatment of enzyme: yes, 6 h
[21] = 80 °C, heat treatment of enzyme: no, 0 h
[22] = 80 °C, heat treatment of enzyme: no, 1 h
[23] = 80 °C, heat treatment of enzyme: no, 3 h
[24] = 80 °C, heat treatment of enzyme: no, 6 h
[25] = 80 °C, heat treatment of enzyme: yes, 6 h

- Decomposition efficiency of glycitin family in defatted soybean (30° C., heat treatment of enzyme no, reaction time 0 h): not detected
- Decomposition efficiency of glycitin family in defatted soybean (30° C., heat treatment of enzyme no, reaction time 1 h): not detected
- Decomposition efficiency of glycitin family in defatted soybean (30° C., heat treatment of enzyme no, reaction time 3 h): not detected
- Decomposition efficiency of glycitin family in defatted soybean (30° C., heat treatment of enzyme no, reaction time 6 h): not detected
- Decomposition efficiency of glycitin family in defatted soybean (30° C., heat treatment of enzyme yes, reaction time 6 h): not detected
- Decomposition efficiency of glycitin family in concentrated soybean protein [1]: 36.0%
- Decomposition efficiency of glycitin family in roasted soy flour [1]: 38.7%
- Decomposition efficiency of glycitin family in soymilk [1]: not detected
- Decomposition efficiency of glycitin family in concentrated soybean protein [2]: 35.0%
- Decomposition efficiency of glycitin family in roasted soy flour [2]: 33.8%
- Decomposition efficiency of glycitin family in soymilk [2]: not detected
- Decomposition efficiency of glycitin family in concentrated soybean protein [3]: 33.4%
- Decomposition efficiency of glycitin family in roasted soy flour [3]: 33.2%
- Decomposition efficiency of glycitin family in soymilk [3]: not detected
- Decomposition efficiency of glycitin family in concentrated soybean protein [4]: 30.8%
- Decomposition efficiency of glycitin family in roasted soy flour [4]: 19.1%
- Decomposition efficiency of glycitin family in soymilk [4]: not detected
- Decomposition efficiency of glycitin family in concentrated soybean protein [5]: 35.4%
- Decomposition efficiency of glycitin family in roasted soy flour [5]: 37.5%
- Decomposition efficiency of glycitin family in soymilk [5]: not detected
- Decomposition efficiency of glycitin family in defatted soybean (45° C., heat treatment of enzyme no, reaction time 0 h): not detected
- Decomposition efficiency of glycitin family in defatted soybean (45° C., heat treatment of enzyme no, reaction time 1 h): not detected
- Decomposition efficiency of glycitin family in defatted soybean (45° C., heat treatment of enzyme no, reaction time 3 h): not detected
- Decomposition efficiency of glycitin family in defatted soybean (45° C., heat treatment of enzyme no, reaction time 6 h): not detected
- Decomposition efficiency of glycitin family in defatted soybean (45° C., heat treatment of enzyme yes, reaction time 6 h): not detected
- Decomposition efficiency of glycitin family in concentrated soybean protein [6]: 35.9%
- Decomposition efficiency of glycitin family in roasted soy flour [6]: 38.3%
- Decomposition efficiency of glycitin family in soymilk [6]: not detected
- Decomposition efficiency of glycitin family in concentrated soybean protein [7]: 34.1%
- Decomposition efficiency of glycitin family in roasted soy flour [7]: 27.4%
- Decomposition efficiency of glycitin family in soymilk [7]: not detected
- Decomposition efficiency of glycitin family in concentrated soybean protein [8]: 31.0%
- Decomposition efficiency of glycitin family in roasted soy flour [8]: 20.3%
- Decomposition efficiency of glycitin family in soymilk [8]: not detected
- Decomposition efficiency of glycitin family in concentrated soybean protein [9]: 27.1%
- Decomposition efficiency of glycitin family in roasted soy flour [9]: 9.1%
- Decomposition efficiency of glycitin family in soymilk [9]: not detected
- Decomposition efficiency of glycitin family in concentrated soybean protein [10]: 35.0%
- Decomposition efficiency of glycitin family in roasted soy flour [10]: 36.8%
- Decomposition efficiency of glycitin family in soymilk [10]: not detected
- Decomposition efficiency of glycitin family in defatted soybean (55° C., heat treatment of enzyme no, reaction time 0 h): not detected
- Decomposition efficiency of glycitin family in defatted soybean (55° C., heat treatment of enzyme no, reaction time 1 h): not detected
- Decomposition efficiency of glycitin family in defatted soybean (55° C., heat treatment of enzyme no, reaction time 3 h): not detected
- Decomposition efficiency of glycitin family in defatted soybean (55° C., heat treatment of enzyme no, reaction time 6 h): not detected
- Decomposition efficiency of glycitin family in defatted soybean (55° C., heat treatment of enzyme yes, reaction time 6 h): not detected
- Decomposition efficiency of glycitin family in concentrated soybean protein [11]: 36.0%
- Decomposition efficiency of glycitin family in roasted soy flour [11]: 39.1%
- Decomposition efficiency of glycitin family in soymilk [11]: not detected
- Decomposition efficiency of glycitin family in concentrated soybean protein [12]: 33.9%
- Decomposition efficiency of glycitin family in roasted soy flour [12]: 30.1%
- Decomposition efficiency of glycitin family in soymilk [12]: not detected
- Decomposition efficiency of glycitin family in concentrated soybean protein [13]: 29.8%
- Decomposition efficiency of glycitin family in roasted soy flour [13]: 12.1%
- Decomposition efficiency of glycitin family in soymilk [13]: not detected
- Decomposition efficiency of glycitin family in concentrated soybean protein [14]: 26.8%
- Decomposition efficiency of glycitin family in roasted soy flour [14]: 6.0%
- Decomposition efficiency of glycitin family in soymilk [14]: not detected
- Decomposition efficiency of glycitin family in concentrated soybean protein [15]: 35.3%
- Decomposition efficiency of glycitin family in roasted soy flour [15]: 37.3%
- Decomposition efficiency of glycitin family in soymilk [15]: not detected
- Decomposition efficiency of glycitin family in defatted soybean (65° C., heat treatment of enzyme no, reaction time 0 h): not detected
- Decomposition efficiency of glycitin family in defatted soybean (65° C., heat treatment of enzyme no, reaction time 1 h): not detected
- Decomposition efficiency of glycitin family in defatted soybean (65° C., heat treatment of enzyme no, reaction time 3 h): not detected
- Decomposition efficiency of glycitin family in defatted soybean (65° C., heat treatment of enzyme no, reaction time 6 h): not detected
- Decomposition efficiency of glycitin family in defatted soybean (65° C., heat treatment of enzyme yes, reaction time 6 h): not detected
- Decomposition efficiency of glycitin family in concentrated soybean protein [16]: 36.0%
- Decomposition efficiency of glycitin family in roasted soy flour [16]: 38.7%
- Decomposition efficiency of glycitin family in soymilk [16]: not detected
- Decomposition efficiency of glycitin family in concentrated soybean protein [17]: 35.7%
- Decomposition efficiency of glycitin family in roasted soy flour [17]: 34.5%
- Decomposition efficiency of glycitin family in soymilk [17]: not detected
- Decomposition efficiency of glycitin family in concentrated soybean protein [18]: 35.5%
- Decomposition efficiency of glycitin family in roasted soy flour [18]: 31.0%
- Decomposition efficiency of glycitin family in soymilk [18]: not detected
- Decomposition efficiency of glycitin family in concentrated soybean protein [19]: 35.8%
- Decomposition efficiency of glycitin family in roasted soy flour [19]: 29.0%
- Decomposition efficiency of glycitin family in soymilk [19]: not detected
- Decomposition efficiency of glycitin family in concentrated soybean protein [20]: 35.7%
- Decomposition efficiency of glycitin family in roasted soy flour [20]: 39.3%
- Decomposition efficiency of glycitin family in soymilk [20]: not detected
- Decomposition efficiency of glycitin family in defatted soybean (80° C., heat treatment of enzyme no, reaction time 0 h): not detected
- Decomposition efficiency of glycitin family in defatted soybean (80° C., heat treatment of enzyme no, reaction time 1 h): not detected
- Decomposition efficiency of glycitin family in defatted soybean (80° C., heat treatment of enzyme no, reaction time 3 h): not detected
- Decomposition efficiency of glycitin family in defatted soybean (80° C., heat treatment of enzyme no, reaction time 6 h): not detected
- Decomposition efficiency of glycitin family in defatted soybean (80° C., heat treatment of enzyme yes, reaction time 6 h): not detected
- Decomposition efficiency of glycitin family in concentrated soybean protein [21]: 35.9%
- Decomposition efficiency of glycitin family in roasted soy flour [21]: 38.3%
- Decomposition efficiency of glycitin family in soymilk [21]: not detected
- Decomposition efficiency of glycitin family in concentrated soybean protein [22]: 36.0%
- Decomposition efficiency of glycitin family in roasted soy flour [22]: 40.1%
- Decomposition efficiency of glycitin family in soymilk [22]: not detected
- Decomposition efficiency of glycitin family in concentrated soybean protein [23]: 35.7%
- Decomposition efficiency of glycitin family in roasted soy flour [23]: 38.4%
- Decomposition efficiency of glycitin family in soymilk [23]: not detected
- Decomposition efficiency of glycitin family in concentrated soybean protein [24]: 35.2%
- Decomposition efficiency of glycitin family in roasted soy flour [24]: 35.7%
- Decomposition efficiency of glycitin family in soymilk [24]: not detected
- Decomposition efficiency of glycitin family in concentrated soybean protein [25]: 34.8%
- Decomposition efficiency of glycitin family in roasted soy flour [25]: 39.4%
- Decomposition efficiency of glycitin family in soymilk [25]: not detected
Compound: COc1cc2c(=O)c(-c3ccc(O)cc3)coc2cc1O[C@@H]1O[C@H](COC(C)=O)[C@@H](O)[C@H](O)[C@H]1O [acetylglycitin, 6″-O-acetylglycitin]
